# Where a SMILES comes first, the peptide text is derived from it. The star is where a group is joined. Palmitoyl = CCCCCCCCCCCCCCCC(=O)*
# Tests used:
# [1] = test system: HIV-1 infection of TZM-bl cells; test: HIV-1 infection assay (β-galactosidase luminescence reporter); type: cell-based; conditions: infectivity enhancing if n-fold at 1.3 µM larger than 2
# Method in brief: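 TZM-bl cells (10000 per well) were seeded one day before infection. Peptide nanofibril solution was mixed 1:1 (v/v) with HIV-1 (1:500 dilution) for 10 min before inoculation. Infection was read as β-galactosidase luminescence, in technical triplicates across three independent experiments.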
# CD4+ T cells [2] = test: Confocal microscopy degradation study with CD4+ T cells; type: in vitro ADME, Human; conditions: 1 µg peptide (5 µg mL-1) added to 250,000 cells, 37°C, 30 min vs 3 d; Proteostat stain
# Method: Confocal laser scanning microscopy and degradation study with PA1‐3 and CD4+ T cells: The degradation of the peptide assemblies on CD4+ T cells was determined by analyzing fluorescence microscopy images. To this end, 4 µL of the preassembled peptide fibrils EF‐C, PA1 and PA2 (1 mg mL^−1, 1 d in PBS) were mixed with 4 µL of Proteostat (Enzo Life Science, 1 µL stock in 99 µL PBS) and incubated for 15 min. 2 µL of the stained fibrils were added to 198 µL preactivated and nucleus stained (Hoechst 33 342) CD4+ T cells (200 µL, 0.25 × 10^6) resulting in a final 5 µg mL^−1concentration of the peptide. After incubation for 30 min at 37°C the cells were washed with 3x with PBS and incubated in medium (supplemented RPMI containing IL‐15 and 7). Microscopy was conducted on a Zeiss LSM 710 confocal microscope with 20x and 63x objective and laser excitation wavelengths of 405 nm (Hoechst) and 561 nm (Proteostat). The measurements were performed after 30 min and 3 d of incubation at 37°C without any washing step in between. Control experiments to analyze changes of fibril aggregation were conducted analogously without the presence of cells. The evaluation of aggregate size and number was conducted by analyzing Proteostat stained aggregates via the 3D objects counter function of ImageJ 1.53f51 for 5 individual measurements (area 708.5 µm × 708.5 µm) of three individually repeated experiments.
# [3] = ATR-FT-IR β-sheet content; type: physicochemical; conditions: ATR-IR of lyophilized fibril solutions (1 mg mL-1, PBS); peak integration at 1630 cm-1 in 2nd derivative of amide I region
# Method: ATR‐FT‐IR: ATR‐IR spectra acquisition and the calculation of β−sheet content were conducted according to a previous report.^[ [20] ^] Briefly, FT‐IR spectra of solid samples were recorded after lyophilization of fibril solutions using a Bruker Tensor II spectrometer equipped with a diamond crystal as ATR element with a spectral resolution of 2 cm–1, each spectrum was an average of 64 scans. The data was processed with Origin software. β−sheet amount was determined by calculating the integral of the peak at 1630 cm^−1 (β‐sheet) relative to the integral between 1650–1700 cm^−1 (native structure) from the 2nd derivative of the FT‐IR spectra.
# Jurkat cells = test: CellTiter-Glo cell viability, Jurkat cells; type: cell-based; conditions: increasing peptide concentrations, 3 days, biological triplicate
# Method: Cell Viability with TZM‐bl and Jurkat cells: The cell viability after addition of peptides to TZM‐bl cells and Jurkat was studied via the CellTiter‐Glo assay. To this end, 20000 cells TZM‐bl or 50000 Jurkat cells were incubated with serial diluted peptides. After 3 days the supernatant was removed and 100 µL CellTiter‐Glo Reagent 1:1 diluted in PBS was added. After 10 min 50 µL was transferred to white microplate and luminescence was recorded by Orion microplate luminometer.
# CD4+ T cells [4] = type: cell-based, Human; conditions: 0.26, 1.3, 6.5 µM, 3 days; LIVE/DEAD Fixable Aqua stain
# Method: γ‐Retroviral transduction Assay CD4+ T cells: Human CD4+ T cells were isolated from a Buffy coat using RosetteSep Human CD4+ Enrichment Cocktail ([…] Technologies) according to manufacturer's protocol. Isolated T cells were activated using Dynabeads Human T‐Activator CD3/CD28 (GibcoTM) according to manufacturer's protocol in presence of 10 ng mL^−1 IL‐2 (Miltenyi Biotec) for three days. After 3 days the magnetic Dynabeads were removed using a magnet and T cells were cultured in presence of 9 ng mL^−1 IL‐7 (Miltenyi Biotec) and 10 ng mL^−1 IL‐15 (Miltenyi Biotec). After 1 day 5 × 10^5 T cells were transduced with GALV‐γ‐RV in absence and presence of PA1, PA2, EF‐C (0.26, 1.3 and 6.5 µM) and Vectofusin−1 (10 µg mL^−1; Miltenyi Biotec), or RetroNectin (20 µg mL^−1; Takara Bio). […] After 3 days GFP+ T cells were analyzed by flow cytometry. Viability was determined using LIVE/DEAD Fixable Aqua Dead Cell Stain Kit (ThermoFisher Scientific) according to manufacturer's protocol. […]
# Figure S7 Viability of CD4+ T cells. […] Dead cells were initially eliminated by gating on viability dye-negative cells (SSC-A vs. Fixable Aqua Fluorescence) and afterwards for singlets (FSC-H vs. FSC-A). GFP+ cells were measured using the FITC channel. […]
molecule,measurement,setting,value
CCCCCCCCCCCCCCCC(=O)N[C@@H](Cc1ccccc1)C(=O)N[C@@H](CCC(N)=O)C(=O)N[C@@H](Cc1ccccc1)C(=O)N[C@@H](CCCCN)C(=O)N[C@@H](Cc1ccccc1)C(=O)N[C@@H](CCCCN)C(=O)N[C@@H](CS)C(N)=O [PA2] (Palmitoyl-FQFKFKC-NH2),infectivity enhancement of HIV-1 (in words),[1],strong infectivity enhancement of HIV‐1 in the range of EF‐C
same,degradation of aggregates by CD4+ T cells (in words),CD4+ T cells [2],not degraded as efficiently
same,β-sheet content,[3],59%
same,viability of Jurkat cells,Jurkat cells,did not reduce the viability
same,viability of CD4+ T cells,CD4+ T cells [4],did not reduce the viability
C16-VVVAAAKKK-NH2 [PA1],infectivity enhancement of HIV-1 (in words),[1],strong infectivity enhancement of HIV‐1 in the range of EF‐C
same,degradation of aggregates by CD4+ T cells (in words),CD4+ T cells [2],almost all small aggregates of PA1 are degraded by CD4+ T cells
same,β-sheet content,[3],57%
same,viability of Jurkat cells,Jurkat cells,did not reduce the viability
same,viability of CD4+ T cells,CD4+ T cells [4],did not reduce the viability

# Reference: paper PMC11468294, “Peptide Amphiphiles as Biodegradable Adjuvants for Efficient Retroviral Gene Delivery” (Advanced Healthcare Materials, 2023)
